Assay results published in PubChem BioAssay AID651745 (NMMLSC, 2012).
pEC50: −log10 of the molar value. Active and inactive are the calls of the source.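 Rule for the calls: active = GFP positive cell share at least 15% at top dose plus 60%-effect dose below 60 µM; inactive = the rest.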

How the values were obtained:
[1] = differentiation induction in ER-HoxA9 progenitors – cell-based, lysozyme-GFP, flow cytometry, Cherry Pick01, dose response (AID 651745); conditions: ER-HoxA9 myeloid progenitors, lysozyme-GFP differentiation, flow cytometry
[2] = system: ER-HoxA9 myeloid progenitors, lysozyme-GFP differentiation, flow cytometry; assay: as above

In the case of `CCCCN1C(N)=NC[C@@H]1Cc1ccc(O)cc1`, the percent GFP positive (differentiation) ([1]; at 39.8 µM (top of the series)) was 3.4% (inactive).

In the case of `CCOC(=O)c1c(NC(=O)C(C)OC(=O)c2ccc(NC(=O)CC#N)cc2)sc2c1CCCC2` (stereo not drawn), the percent GFP positive (differentiation) ([1]; at 6.6 µM (top of the series)) was 1.6% (inactive).

With `Nc1ccc(C#Cc2ccc3c(=O)c4ccccc4oc3c2)cc1` the percent GFP positive (differentiation) ([1]; at 13.2 µM (top of the series)) was 15.2% (inactive).

Work on `Cc1cccn2cc(COc3ccc(-c4ccccc4)cc3)nc12` yielded a pEC50 [2] of 5.65.

In the case of `N#CC(C#N)=c1ccc2c(c1)N1C(c3ccccc3)=CC(c3ccccc3)C3CCCCC31N=2` (stereo not drawn), the percent GFP positive (differentiation) ([1]; at 39.8 µM (top of the series)) was 1% (inactive).

`COC(=O)c1cc2c(=O)c3ccccc3oc2nc1/C=C/N(C)C` gave a pEC50 [2] of 5.16.

In the case of `Cn1ccc2c(-c3ccc(C(C)(C)C)cc3)cc3c(c21)C1CCC3O1` (stereo not drawn), the pEC50 [2] was 5.25.

With `O=c1[nH][nH]cc1C=Nc1ccccc1O` the percent GFP positive (differentiation) ([1]; at 19.9 µM (top of the series)) was 2.8% (inactive).

In the case of `COc1ccc(NC(=S)N2CCC3CC2c2c(Cl)cccc23)c(OC)c1` (stereo not drawn), the percent GFP positive (differentiation) ([1]; at 39.8 µM (top of the series)) was 0.6% (inactive).

For `CN(Cc1ccc(Cl)c(Cl)c1)C(=O)C1=CC=CN2CCS(=O)(=O)N=C12`, the percent GFP positive (differentiation) ([1]; at 13.2 µM (top of the series)) was 6.5% (inactive).

For `Clc1ccc(Cn2ncc3c(N4CCN(c5ccccc5)CC4)ncnc32)cc1`, the percent GFP positive (differentiation) ([1]; at 4.37 µM (top of the series)) was 1.8% (inactive).

With `CCCN1CCc2c(sc(NC(=O)c3ccc(S(=O)(=O)N(C)c4ccccc4)cc3)c2C(=O)NC)C1` the percent GFP positive (differentiation) ([1]; at 13.2 µM (top of the series)) was 89.5% (inactive).

For `c1cc(SC2CCCCC2)cc(-c2nc3cnccn3c2NC2CCCCC2)c1`, the percent GFP positive (differentiation) ([1]; at 6.6 µM (top of the series)) was 4.8% (inactive).

With `CC(=O)c1c(NC(=O)c2ccccc2)[nH]c(-c2ccccc2)nc1=S` the percent GFP positive (differentiation) ([1]; at 39.8 µM (top of the series)) was 4% (inactive).

For `COC(=O)C1=C(c2cc3ccccc3s2)C[C@@H]2CC[C@H]1N2C(=O)NC1CCCCC1`, the percent GFP positive (differentiation) ([1]; at 13.2 µM (top of the series)) was 4.3% (inactive).

In the case of `O=[N+]([O-])c1ccc(C[n+]2cccc3c4ccccc4ccc32)cc1`, the percent GFP positive (differentiation) ([1]; at 39.8 µM (top of the series)) was 3.1% (inactive).

In the case of `CC(=O)Nc1ccc(C2=CC(=O)C[C@H](c3ccc(Cl)cc3)C2)cc1`, the pEC50 [2] was 4.61.

`Cc1cc(NC(=O)COC(=O)c2c(C)nn(Cc3ccccc3)c2Cl)no1` showed a pEC50 [2] of 5.35.

In the case of `O=C(CCCN1C(=O)/C(=C/c2ccco2)SC1=S)Nc1cccc(C(=O)O)c1`, the percent GFP positive (differentiation) ([1]; at 19.9 µM (top of the series)) was 7.4% (inactive).

For `COc1ccccc1NC(=O)c1cccc(S(=O)(=O)N2CCN(c3ccccc3)CC2)c1`, the percent GFP positive (differentiation) ([1]; at 19.9 µM (top of the series)) was 4.3% (inactive).

With `O=C(O)c1ccccc1N/N=C/c1c(Sc2nnnn2-c2ccccc2)nc2ccccn2c1=O` the percent GFP positive (differentiation) ([1]; at 39.8 µM (top of the series)) was 97.5% (inactive).

With `CC(=O)c1c(N2CCOCC2)[nH]c(-c2ccccc2)nc1=S` the percent GFP positive (differentiation) ([1]; at 39.8 µM (top of the series)) was 5.35% (inactive).

`CCCCn1c(N)c(N(CC(C)C)C(=O)Cc2ccc(S(=O)(=O)N3CCOCC3)s2)c(=O)[nH]c1=O` gave a pEC50 [2] of 4.70.

Compound `O=C(O)c1cccnc1Nc1ccc(Cl)cc1` has a pEC50 [2] of 5.23.

For `CCCCOc1ccc(OC(=O)Nc2cc(Cl)ccc2OC)cc1`, the percent GFP positive (differentiation) ([1]; at 13.2 µM (top of the series)) was 2.55% (inactive).

For `Brc1ccc(-c2csc3[n+]2CCCCC3)cc1`, the percent GFP positive (differentiation) ([1]; at 6.6 µM (top of the series)) was 9.9% (inactive).

For `COc1ccc(NC2=C(NC(C)=O)C(=O)c3ccccc3C2=O)cc1`, the percent GFP positive (differentiation) ([1]; at 6.6 µM (top of the series)) was 20.3% (inactive).

For `C#CC[N+](CC)(CC)CC#Cc1ccccc1`, the percent GFP positive (differentiation) ([1]; at 39.8 µM (top of the series)) was 4.1% (inactive).

In the case of `O[C@H]1C[C@H](c2ccc(Cl)cc2)N(Cc2cccs2)C[C@@H]1n1cc(C2CC2)nn1`, the pEC50 [2] was 5.31.

For `CCCc1nc2c3ccccc3ccn2c1Cc1ccc(OC)cc1C`, the percent GFP positive (differentiation) ([1]; at 13.2 µM (top of the series)) was 2.2% (inactive).

With `COc1ccccc1CN(Cc1nc2ccccc2c(=O)[nH]1)C(=O)Nc1ccc(C)cc1` the percent GFP positive (differentiation) ([1]; at 39.8 µM (top of the series)) was 1.4% (inactive).

For `Cn1c(-c2ccccc2)c[n+]2c1-c1ccccc1C2`, the percent GFP positive (differentiation) ([1]; at 19.9 µM (top of the series)) was 3.8% (inactive).

For `COc1cccc(NC(=O)[C@H](Cc2c[nH]c3ccccc23)NC(=O)[C@@H]2Cc3ccccc3CN2)c1`, the percent GFP positive (differentiation) ([1]; at 39.8 µM (top of the series)) was 3.5% (inactive).

With `CCC(CO)n1c(SCc2cc(=O)oc3cc(C)ccc23)nc2ccccc2c1=O` (stereo not drawn) the percent GFP positive (differentiation) ([1]; at 19.9 µM (top of the series)) was 2.7% (inactive).

In the case of `Cn1c(=O)c2cc(NC(=O)NCc3ccc(F)cc3)ccc2n1C/C=C/c1ccccc1`, the percent GFP positive (differentiation) ([1]; at 2.19 µM (top of the series)) was 1.7% (inactive).

Compound `COc1ccccc1C1N(c2ccc(Cl)cc2)C(=O)C2CCCN21` (stereo not drawn) has a pEC50 [2] of 5.19.

For `CCOC(=O)c1c(NC(=O)c2nn(CC)cc2Br)c(C#N)cn1-c1ccccc1`, the percent GFP positive (differentiation) ([1]; at 39.8 µM (top of the series)) was 0.4% (inactive).

With `C=CCN(c1ccccc1OC)S(=O)(=O)c1ccc(Cl)c(C(=O)NCc2ccco2)c1` the percent GFP positive (differentiation) ([1]; at 13.2 µM (top of the series)) was 2.5% (inactive).

For `COc1ccc2ccccc2c1CNC(=O)CC1C(=O)NCCN1CC(C)C` (stereo not drawn), the percent GFP positive (differentiation) ([1]; at 39.8 µM (top of the series)) was 7% (inactive).

With `Cc1cccc(N2CCN(C(=O)c3ccc4c(c3)OCCO4)CC2)c1C` the percent GFP positive (differentiation) ([1]; at 39.8 µM (top of the series)) was 2.1% (inactive).

In the case of `COc1ccc(Cn2nnnc2CN2CCc3ccccc32)cc1`, the percent GFP positive (differentiation) ([1]; at 39.8 µM (top of the series)) was 1.9% (inactive).

In the case of `COc1ccc(/C=C/C(O)=C2/C(=O)N(C)C3(C)CC2c2ccccc2O3)cc1` (stereo not drawn), the percent GFP positive (differentiation) ([1]; at 13.2 µM (top of the series)) was 5.7% (inactive).

In the case of `CCC1(c2ccc(F)cc2)NC(=O)N(CC(=O)N2CCN(S(=O)(=O)c3ccc(C)cc3C)CC2)C1=O` (stereo not drawn), the percent GFP positive (differentiation) ([1]; at 13.2 µM (top of the series)) was 1.95% (inactive).

With `C[n+]1ccccc1/C=C/c1ccc2ncccc2c1` the percent GFP positive (differentiation) ([1]; at 39.8 µM (top of the series)) was 4.4% (inactive).

In the case of `CNC(=O)c1c(NC(=O)c2ccc(S(=O)(=O)N3CCCc4ccccc43)cc2)sc2c1CCN(C)C2`, the percent GFP positive (differentiation) ([1]; at 13.2 µM (top of the series)) was 4.8% (inactive).

With `Cn1cc(-c2cnc3c(NC=O)cc(-c4cccc(C(F)(F)F)c4)cn23)cn1` the percent GFP positive (differentiation) ([1]; at 6.6 µM (top of the series)) was 2.3% (inactive).

With `O=C(CCNC(=O)c1ccc(Br)cc1)NC1CCCc2ccccc21` (stereo not drawn) the pEC50 [2] was 5.27.

In the case of `COc1ccc(/C=C/c2cccc[n+]2C)c(O)c1`, the percent GFP positive (differentiation) ([1]; at 39.8 µM (top of the series)) was 6.2% (inactive).

Compound `O=C(O)c1ccccc1Nc1ccc([N+](=O)[O-])cc1` has a pEC50 [2] of 5.22.

For `CCOC(=O)c1c(NC(=O)C(C)Sc2cccc[n+]2[O-])sc2c1CCN(Cc1ccccc1)C2` (stereo not drawn), the percent GFP positive (differentiation) ([1]; at 13.2 µM (top of the series)) was 1.7% (inactive).

For `C/C(N)=C(/C#N)C(=O)COC(=O)c1cc(C)n(-c2ccc(F)cc2)c1C`, the percent GFP positive (differentiation) ([1]; at 19.9 µM (top of the series)) was 10.9% (inactive).

`C/C(=C1/SC(N2CCCC2)=NC1=O)c1ccc(Br)cc1` gave a pEC50 [2] of 5.68.

In the case of `C[n+]1c(/C=C/c2ccc3c(c2)OCO3)ccc2ccccc21`, the percent GFP positive (differentiation) ([1]; at 13.2 µM (top of the series)) was 3.3% (inactive).

For `COc1ccc(C)cc1NC(=O)n1ncc2cc(Cl)ccc21`, the percent GFP positive (differentiation) ([1]; at 39.8 µM (top of the series)) was 2.5% (inactive).

In the case of `COc1ccc(-n2c(C)cc(/C=C3\SC(=S)N(Cc4ccco4)C3=O)c2C)cc1`, the percent GFP positive (differentiation) ([1]; at 19.9 µM (top of the series)) was 7.7% (inactive).

In the case of `O=CNc1ccc2c3c(cccc13)-c1ccccc1-2`, the percent GFP positive (differentiation) ([1]; at 13.2 µM (top of the series)) was 1.9% (inactive).

For `Cc1nn(-c2ccccc2)c(N2CCCC2)c1/C=N/NC(=S)Nc1ccccc1F`, the percent GFP positive (differentiation) ([1]; at 4.37 µM (top of the series)) was 2.2% (inactive).

With `Cc1c(N=C2NN=C(c3c[nH]c4ccccc34)CS2)c(=O)n(-c2ccccc2)n1C` the percent GFP positive (differentiation) ([1]; at 39.8 µM (top of the series)) was 5.55% (inactive).

In the case of `Cc1ccc(OCc2nnc(SCc3nc4ccccc4[nH]3)n2Cc2ccco2)cc1`, the percent GFP positive (differentiation) ([1]; at 19.9 µM (top of the series)) was 3.4% (inactive).

With `CCOC(=O)C1=C(CN2CCc3ccccc32)NC(=O)NC1c1cccc([N+](=O)[O-])c1` (stereo not drawn) the percent GFP positive (differentiation) ([1]; at 19.9 µM (top of the series)) was 10.5% (inactive).

Work on `N#C/C(=C\N1CCN(Cc2ccc3c(c2)OCO3)CC1)c1nc2ccccc2s1` yielded a pEC50 [2] of 5.19.

For `CCOc1ccccc1Nc1nc2ccc(C)cc2n2cnnc12`, the percent GFP positive (differentiation) ([1]; at 39.8 µM (top of the series)) was 1.4% (inactive).

In the case of `O=C(NCc1ccccc1)C1=C[C@@H](c2csc3ccccc23)C[C@@H](OCc2ccc(CO)cc2)O1`, the percent GFP positive (differentiation) ([1]; at 4.37 µM (top of the series)) was 1.2% (inactive).

In the case of `Cc1ccc(-c2nn3c(C)nnc3s2)cc1NC(=O)CSc1ccc(Cl)cc1`, the percent GFP positive (differentiation) ([1]; at 39.8 µM (top of the series)) was 0.9% (inactive).

`Cc1ccc(Nc2nc(=O)c3cccnc3s2)c(Br)c1` gave a pEC50 [2] of 5.35.

With `CCC(C)Sc1ccc(-c2nc3cc(C)ccn3c2NC2CCCCC2)cc1` (stereo not drawn) the pEC50 [2] was 4.67.

In the case of `CCS(=O)(=O)c1nc(S(=O)(=O)c2ccc(Cl)cc2)c(N2CCC3(CC2)OCCO3)s1`, the percent GFP positive (differentiation) ([1]; at 39.8 µM (top of the series)) was 5.1% (inactive).

With `Cc1cccn2c(=O)c(/C=C3\SC(=S)NC3=O)c(NCCCN3CCOCC3)nc12` the percent GFP positive (differentiation) ([1]; at 19.9 µM (top of the series)) was 33% (inactive).
